Values of other authors in PMC7904743, “WIDOCK: a reactive docking protocol for virtual screening of covalent inhibitors” (Journal of Computer-Aided Molecular Design, 2021).
Like-named read-outs stand apart in the source and are kept apart here.

What was measured:
NUDT7 = conditions: protein labeling at 200 μM; experimental actives if % labeling higher than 50%; cited from earlier work
OTUB2 = conditions: experimental actives if % labeling higher than 50%, cited from earlier work
[1] = thiol reactivity, cited from earlier work
[2] = natural log of average rate constant k
[3] = natural logarithm of average rate constant
[4] = natural log of average kinetic rate constant
[5] = natural log of average rate constant

Row | SMILES | NUDT7 % labeling (NUDT7) | OTUB2 % labeling (OTUB2) | ln(avg k) [1, 2] | ln(avg k) [1, 3] | OTUB2 % labeling (OTUB2; OTUB2 protein labeling) | ln(avg k) [1, 4] | ln(avg k) [1, 5]
1 | CN(C)S(=O)(=O)c1ccc2c(c1)CCCN2C(=O)CCl [PCM-0102285, CN(C)S(=O)(=O)c1ccc2c(c1)CCCN2C(=O)CCl] | 0% | 0% | -15.789 | -15.789 | – | – | –
2 | O=C(CCl)Nc1ccccc1[N+](=O)[O-] [PCM-0102232, O=C(CCl)Nc1ccccc1[N+](=O)[O-]] | 24% | 20% | -15.562 | -15.562 | – | – | –
3 | NS(=O)(=O)c1cccc(NC(=O)CCl)c1 [PCM-0102162, NS(=O)(=O)c1cccc(NC(=O)CCl)c1] | 0% | 58% | -15.171 | -15.171 | – | – | –
4 | O=C(CCl)N1CCN(Cc2cccc(Cl)c2)CC1 [PCM-0102269, O=C(CCl)N1CCN(Cc2cccc(Cl)c2)CC1] | 0% | 19% | -15.481 | -15.481 | – | – | –
5 | CC(NC(=O)CCl)c1ccc(Cl)cc1Cl (stereo not drawn) [PCM-0102212, CC(NC(=O)CCl)c1ccc(Cl)cc1Cl] | 54% | 18% | -16.295 | -16.295 | – | – | –
6 | Cc1ccsc1CNC(=O)CCl [PCM-0103075, Cc1ccsc1CNC(=O)CCl] | 0% | – | – | – | 55% | -16.632 | -16.632
7 | CC(=O)N1CCc2cc(NC(=O)CCl)ccc21 [PCM-0102129, CC(=O)N1CCc2cc(NC(=O)CCl)ccc21] | 7% | 31% | -15.858 | -15.858 | – | – | –
8 | O=C(CCl)Nc1cc2c(cc1Cl)OCCCO2 [PCM-0102331, O=C(CCl)Nc1cc2c(cc1Cl)OCCCO2] | 36% | 26% | -16.178 | -16.178 | – | – | –
9 | O=C(CCl)NC(=O)NCC1COc2ccccc2O1 (stereo not drawn) [PCM-0102092, O=C(CCl)NC(=O)NCC1COc2ccccc2O1] | 0% | 0% | -15.940 | -15.940 | – | – | –
10 | Cc1ccc(N(C(=O)CCl)C2C=CS(=O)(=O)C2)cc1C (stereo not drawn) [PCM-0103082, Cc1ccc(N(C(=O)CCl)C2C=CS(=O)(=O)C2)cc1C] | 15% | – | – | – | 0% | -15.512 | -15.512
11 | O=C(CCl)Nc1ccc2c(c1)CCC2 [PCM-0102662, O=C(CCl)Nc1ccc2c(c1)CCC2] | 12% | 14% | -16.202 | -16.202 | – | – | –
12 | N#CCc1ccc(NC(=O)CCl)cc1 [PCM-0102148, N#CCc1ccc(NC(=O)CCl)cc1] | 10% | 43% | -15.302 | -15.302 | – | – | –
13 | Cc1cc(NC(=O)CCl)n(-c2ccc(F)cc2)n1 [PCM-0102665, Cc1cc(NC(=O)CCl)n(-c2ccc(F)cc2)n1] | 0% | 53% | -15.905 | -15.905 | – | – | –
14 | Cc1cc(CNC(=O)CCl)cc(C)c1O [PCM-0102431, Cc1cc(CNC(=O)CCl)cc(C)c1O] | 0% | 64% | -16.592 | -16.592 | – | – | –
15 | O=C(CCl)NCC1CCS(=O)(=O)C1 (stereo not drawn) [PCM-0102896, O=C(CCl)NCC1CCS(=O)(=O)C1] | 0% | – | – | – | 23% | -16.032 | -16.032
16 | O=C(CCl)N1CCc2ccccc21 [PCM-0102160, O=C(CCl)N1CCc2ccccc21] | 0% | 0% | -15.869 | -15.869 | – | – | –
17 | CN(Cc1ccc(F)cc1)C(=O)CCl [PCM-0102939, CN(Cc1ccc(F)cc1)C(=O)CCl] | 0% | – | – | – | 10% | -16.214 | -16.214
18 | CN(Cc1nc2ccccc2s1)C(=O)CCl [PCM-0102988, CN(Cc1nc2ccccc2s1)C(=O)CCl] | 30% | – | – | – | 0% | -15.687 | -15.687
19 | COc1ccc(NC(=O)CCl)cn1 [PCM-0102140, COc1ccc(NC(=O)CCl)cn1] | 0% | 0% | -13.166 | -13.166 | – | – | –
20 | O=C(CCl)Nc1cccc(C(=O)O)c1 [PCM-0102696, O=C(CCl)Nc1cccc(C(=O)O)c1] | 0% | 11% | -16.586 | -16.586 | – | – | –
21 | CC1CCCN(C(=O)C2CCN(C(=O)CCl)CC2)C1 (stereo not drawn) [PCM-0102933, CC1CCCN(C(=O)C2CCN(C(=O)CCl)CC2)C1] | 0% | – | – | – | 0% | -15.328 | -15.328

Row | SMILES | NUDT7 % labeling (NUDT7) | OTUB2 % labeling (OTUB2) | ln(avg k) [1, 2] | ln(avg k) [1, 3] | OTUB2 % labeling (OTUB2; OTUB2 protein labeling) | ln(avg k) [1, 4] | ln(avg k) [1, 5]
22 | O=C(CCl)NCc1ccc(Cl)s1 [PCM-0103080, O=C(CCl)NCc1ccc(Cl)s1] | 0% | – | – | – | 79% | -16.506 | -16.506
23 | Cn1nc(-c2ccc(Cl)cc2)cc1NC(=O)CCl [PCM-0102296, Cn1nc(-c2ccc(Cl)cc2)cc1NC(=O)CCl] | 54% | 38% | -15.558 | -15.558 | – | – | –
24 | O=C(CCl)NNC(=O)c1cc2c(s1)CCCC2 [PCM-0102142, O=C(CCl)NNC(=O)c1cc2c(s1)CCCC2] | 9% | 100% | -16.868 | -16.868 | – | – | –
25 | CC1(c2ccccc2)NC(=O)N(NC(=O)CCl)C1=O (stereo not drawn) [PCM-0102428, CC1(c2ccccc2)NC(=O)N(NC(=O)CCl)C1=O] | 0% | 0% | -17.653 | -17.653 | – | – | –
26 | CC1CCc2ccccc2N1C(=O)CCl (stereo not drawn) [PCM-0102822, CC1CCc2ccccc2N1C(=O)CCl] | 0% | – | – | – | 0% | -16.310 | -16.310
27 | O=C(CCl)N1CCN(C(=O)C2CC2)CC1 [PCM-0102970, O=C(CCl)N1CCN(C(=O)C2CC2)CC1] | 7% | – | – | – | 0% | -15.304 | -15.304
28 | COc1ccc(C)cc1NC(=O)CCl [PCM-0103043, COc1ccc(C)cc1NC(=O)CCl] | 6% | – | – | – | 27% | -16.699 | -16.699
29 | C=CCNC(=O)NC(=O)CCl [PCM-0102709, C=CCNC(=O)NC(=O)CCl] | 0% | 0% | – | -16.210 | – | – | -16.210
30 | CC1(C)C2CCC1(C)C(NC(=O)CCl)C2 (stereo not drawn) [PCM-0102315, CC1(C)C2CCC1(C)C(NC(=O)CCl)C2] | 0% | 0% | -16.417 | -16.417 | – | – | –
31 | NC(=O)C1CN(C(=O)CCl)c2ccccc2O1 (stereo not drawn) [PCM-0102245, NC(=O)C1CN(C(=O)CCl)c2ccccc2O1] | 12% | 15% | -15.513 | -15.513 | – | – | –
32 | NS(=O)(=O)c1ccc(NC(=O)CCl)cc1 [PCM-0102807, NS(=O)(=O)c1ccc(NC(=O)CCl)cc1] | 0% | – | – | – | 29% | -15.463 | -15.463
33 | O=C(CCl)N1CCC(c2nc3ccccc3o2)CC1 [PCM-0102920, O=C(CCl)N1CCC(c2nc3ccccc3o2)CC1] | 0% | – | – | – | 0% | -15.428 | -15.428
34 | O=C(CCl)N1CCN(Cc2cccc3ccccc23)CC1 [PCM-0102287, O=C(CCl)N1CCN(Cc2cccc3ccccc23)CC1] | 0% | 29% | -15.635 | -15.635 | – | – | –
35 | COc1ccc(Cl)cc1NC(=O)CCl [PCM-0102370, COc1ccc(Cl)cc1NC(=O)CCl] | 23% | 18% | -15.854 | -15.854 | – | – | –
36 | CC(=O)Nc1ccc(NC(=O)CCl)c(C(F)(F)F)c1 [PCM-0102895, CC(=O)Nc1ccc(NC(=O)CCl)c(C(F)(F)F)c1] | 0% | – | – | – | 0% | -16.611 | -16.611
37 | O=C(CCl)N(CC(F)(F)F)c1ccc(Cl)cc1 [PCM-0102155, O=C(CCl)N(CC(F)(F)F)c1ccc(Cl)cc1] | 79% | 0% | -15.883 | -15.883 | – | – | –
38 | O=C(CCl)N1CCN(Cc2ccc(Br)s2)CC1 [PCM-0102169, O=C(CCl)N1CCN(Cc2ccc(Br)s2)CC1] | 0% | 0% | -15.949 | -15.949 | – | – | –
39 | O=C(CCl)Nc1cc2[nH]c(=O)[nH]c2cc1Br [PCM-0102388, O=C(CCl)Nc1cc2[nH]c(=O)[nH]c2cc1Br] | 0% | 56% | -15.369 | -15.369 | – | – | –
40 | O=C(CCl)Nc1ccc(N2CCCC2)cc1 [PCM-0102670, O=C(CCl)Nc1ccc(N2CCCC2)cc1] | 0% | 48% | -13.297 | -13.297 | – | – | –
41 | CNC(=O)C1CN(C(=O)CCl)c2ccccc2O1 (stereo not drawn) [PCM-0102221, CNC(=O)C1CN(C(=O)CCl)c2ccccc2O1] | 0% | 15% | -15.966 | -15.966 | – | – | –
42 | Cc1csc(NC(=O)CCl)n1 [PCM-0102872, Cc1csc(NC(=O)CCl)n1] | 16% | – | – | – | 0% | -15.785 | -15.785
